Measured values: patent publication US5484778A, “Phthalocyanine photosensitizers for photodynamic therapy and methods for their use” (priority 1993, dated 1996)
Entries after “also recorded” stand apart in the source; their conditions may differ.

What was measured:
[1] = tested on: Chinese hamster V79-379 cells; assay: Growth delay of V79 cultures after red light (Table 1); assay type: cell-based; conditions: for Growth Delay, efficiency relative to 1 μM AlPcCl: 18 h, 12 kJ/m^2 red light
Description: (§1) Chinese hamster V79-379 lung fibroblasts were grown in monolayer culture in McCoy's 5A medium (Gibco Laboratories, Grand Island, N.Y.) augmented with 10% calf serum and buffered with 20 mM HEPES (pH 7.4).
(§2) The cells were treated with 1 μM AlPcCl (from Eastman Kodak, Rochester, N.Y.) or with phthalocyanine compositions I-VI (0.5-1.0 μM final concentration in the medium) for 18 hours by adding the appropriate volume of a 1.0 mM stock solution in dimethylformamide (DMF) to the culture medium. The growth medium was replaced with 4 ml Hank's balanced salt solution (HBSS), and the cells were irradiated. The light source was a 500 W tungsten-halogen lamp located approximately 29 inches below the surface of a glass exposure tray. The visible light administered to the cells was filtered to allow passage of only that portion of the visible spectrum above 600 nm (Lee Primary red filter No. 106, Vincent Lighting, Cleveland, Ohio). The fluence rate was approximately 0.074 kJ/m^2 /s at the level of the cell monolayer.
At the time of light exposure, there were approximately 1.5×10^5 cells per 25 cm^2 flask. Following irradiation, the HBSS was replaced by 10 ml of fresh complete growth medium, and the cultures were returned to the 37° C. incubator. At various times before and after irradiation, duplicate cultures were trypsinized and counted. Controls included untreated cells and cells treated with light alone or drug alone. In addition, in each experiment, the drug to be tested was compared to a standard treatment, i.e. 1 μM AlPcCl for 18 hours followed by 12 kJ/m^2 light.
The inhibition of V79 culture growth was measured during a three day period following red light irradiation (12 kJ/m^2) of phthalocyanine-pretreated cells. With each of the active compounds, as well as with AlPcCl, there was an initial decrease in cell density, as dead cells became detached from the monolayer. Thereafter, the cell number per flask increased, as living cells grew and divided. The time for the cell density to recover to the level at the time of light exposure was considered the growth delay. […] The ratio of the growth delay for the test photosensitizer and the growth delay for AlPcCl measured in the same experiment is recorded in Table 1.

[2] = tested on: Chinese hamster V79-379 cells; assay: Uptake of phthalocyanines by V79 cells relative to AlPcCl (Table 1); assay type: cell-based
Description: as §1
Total uptake was determined by scraping the phthalocyanine-treated monolayer, collecting the cells on a glass-fiber filter, and extracting the phthalocyanine in ethanol, as previously described by Ramakrishnan, et al., 1989. (Ramakrishnan, N., M. E. Clay, M. F. Horng, A. R. Antunez, & H. H. Evans, "DNA Lesions and DNA Degradation in Mouse Lymphoma L5178Y Cells After Photodynamic Treatment Sensitized by Chloroaluminum Phthalocyanine",Photochem. Photobiol, in press, 1989). The amount of drug was determined by absorption at 674 nm and expressed relative to the number of cells, as measured in a Coulter cell counter on an aliquot of the cell population. Controls included cells not treated with drug, medium alone, and drug-containing medium without cells. The results of the total uptake of the various compositions of the present invention in comparison to AlPcCl are set forth below in Table 1.
as §2
All of the compounds have been examined for the extent of cellular uptake after exposure of V79 cells to 1 μM or less in complete medium, and the data of Table 1 are presented relative to the uptake from 1 μM AlPcCl, which was 0.723±0.172 nmole/10^7 cells (mean ±S. D., 25 determinations). […] In particular, when the concentration of Compound IV was 1 μM in the medium, the uptake into the cells was sufficiently high that some of the uptake and phototoxicity studies were repeated at 0.5 μM.

[3] = tested on: Chinese hamster V79-379 cells; assay: Clonogenic cell survival / photocytotoxicity in V79 cells (Table 1, FIG. 1, FIG. 2); assay type: cell-based; conditions: for CF10 (AlPcCl)/CF10 (Pc) / F10 (AlPcCl)/F10 (Pc): 1.0 μM, 18 h; for CF10 (AlPcCl)/CF10 (Pc): CF10 = intracellular concentration x fluence reducing survival to 10%; for F10 (AlPcCl)/F10 (Pc): F10 = fluence reducing survival to 10%
Description: FIG. 1 is a graph illustrating the photodynamic efficacy of the various compositions of the present invention in comparison to AlPcCl. The phthalocyanine composition compounds of the present invention were tested for their photodynamic efficiency against Chinese hamster fibroblast V79 cells by colony formation. Monolayer cultures were treated with the indicated phthalocyanine composition for 18 hours, irradiated with various fluences of red light, and immediately trypsinized and replated at appropriate aliquots in triplicate. Colonies of at least 50 cells were counted after 7-10 days. The plating efficiency of the untreated cells was approximately 90%.
In this regard, in FIG. 2 the data of FIG. 1 were replotted as a function of the product of the amount of cell-associated phthalocyanine and the light fluence.
as §1, §2
Cells were irradiated at a density of approximately 2×10^6 per 25 cm^2 flask. Immediately after irradiation, the cell monolayer was treated with trypsin, and appropriate aliquots were plated in triplicate to give 100 to 200 colonies in each 10-cm Petri dish. Cell survival was determined by the ability of the cells to form colonies containing at least 50 cells. The response of cells treated with 1 μM AlPcCl and light was compared in each experiment.
Photocytotoxicity of the phthalocyanines compounds I to VI was also assessed by clonogenic assay (Table 1, FIG. 1). In all experiments, 1 μM AlPcCl was included for comparison purposes. From the survival curves (FIG. 1), the fluence reducing the cell survival to 10% (F10) was obtained. The ratio of the F10 for AlPcCl and the F10 for the test compound is recorded in Table 1.
In order to take differences in cellular uptake into consideration in the assessment of the relative efficiency of these phthalocyanines as photosensitizers of V79 cells, the survival data were replotted against the product of intracellular phthalocyanine concentration and light fluence (FIG. 2). From these curves, the product of intracellular concentration and light fluence reducing survival to 10% (CF10) was obtained, and comparisons of the values for AlPcCl and the test compounds are recorded in Table 1.

L5178Y-R (LY-R) cells = assay: Clonogenic survival of PDT-treated L5178Y-R cells (Tables 4 and 5, FIG. 3); assay type: cell-based, mouse; conditions: 0.5 μM
Description: (§3) Mouse lymphoma L5178y-R (hereinafter also referred to as "LY-R") cells were grown in suspension culture as described in Ramakrishnan N., Oleinick, N. L. Clay, M. E., Horng, M. F., Antunez, A. R., and Evans H. H., DNA lesions and DNA degradation in mouse lymphoma L5178Y cells after photodynamic treatment sensitized by chloroaluminum phthalocyanine. Photochem. Photobiol. 50, 373-378, 1989 and Agarwal, M. L., Clay, M. E., Harvey, E. J., Evans, H. H., Antunez, A. R., and Oleinick, N. L. Photodynamic therapy induces rapid cell death by apoptosis in L5178Y mouse lymphoma cells. Cancer Res., 51, 5993-5996, 1991.
(§4) The cells were used while in exponential growth. Stock solutions of either 0.5 or 1 mM of PcIV, PcXII, PcX, PcXVIII were prepared in dimethylformamide unless otherwise indicated and added to the 10 mL medium at a rate of 1 μL per mL. After allowing 18 hours for uptake of the phthalocyanine into the cells, the flasks containing the cultures were placed on a glass exposure tray above a 500-W tungsten-halogen lamp. The exposure tray was fitted with a 600-nm high-pass filter. Flasks were exposed to various fluences of red light (up to 30 kJ/m^2) at a fluence rate of approximately 74 W/m^2). After irradiation, the cells were collected by centrifugation.
(§5) For measurement of clonogenic cell survival, aliquots were plated in medium containing soft agar as described in Ramakrishnan N., Oleinick, N. L. Clay, M. E., Horng, M. F., Antunez, A. R., and Evans H. H., DNA lesions and DNA degradation in mouse lymphoma L5178Y cells after photodynamic treatment sensitized by chloroaluminum phthalocyanine. Photochem. Photobiol. 50, 373-378, 1989. The aliquots were plated in sufficient numbers to produce 50-200 colonies. The dishes were kept in an incubator at 37° C. in an atmosphere of 5% CO2 and 95% air for 10-14 days to allow viable cells to form colonies. Colonies were counted by eye. Controls treated with the phthalocyanine alone had plating efficiencies of ~90%. The plating efficiencies of the treated cells are normalized to the plating efficiencies of control cells in each experiment. For measurement of the induction of apoptosis, DNA was isolated from the treated and control cells 2 hours after photodynamic therapy, subjected to electrophoresis on 1.5% agarose, stained with ethidium bromide, and visualized by UV transillumination, as described in Agarwal et. al. The results are shown in Tables 4, 5 and 6 and in FIG. 3.
In Table 4 each phthalocyanine was present at 0.5 μM, and the normalized plating efficiencies are presented as mean and standard deviation at each fluence tested. […] This relative activity of these four phthalocyanines is the same as obtained from screening in V79 cells.
PcXII when present in the culture medium at 0.5 μM requires less light, that is the lowest fluence, to kill either 50% […] of the cells. PcIV is about 80% as active as PcXII, PcX is 44% as active as PcXII and PcXVIII is 22% as active as PcXII.

L5178Y cells = assay: Induction of apoptosis (DNA fragmentation) in L5178Y-R cells (Table 6); assay type: cell-based, mouse; conditions: 0.4 μM
Description: as §3, §4, §5
Cells were treated with various concentrations of the compounds listed in the table and various light fluences. DNA gels were prepared and examined for the characteristic "ladder" pattern of DNA fragments. For each Pc, the minimum total PDT dose tested (calculated as the product of the minimum phthalocyanine concentration and the minimum fluence) which produced visible DNA fragments is recorded. […] PcXVIII was also added at 0.5 and 1.0 μM.

V79 cells [4] = tested on: V79 cells
Description: V79 cells Chinese hamster lung fibroblasts were cultured using the cell culture methods described above. […] When the filters were dry, the phthalocyanines were extracted into ethanol and the absorption determined at the peak wavelength, usually 668 nm.

V79 cells [5] = assay: Clonogenicity, killing of V79 cells using photodynamic therapy (Table 3); assay type: cell-based, Chinese hamster
Description: Using the cell culture methods described above, V79 cells Chinese hamster lung fibroblasts were treated with either 0.5 or 1.0 μM of the phthalocyanines listed in Table 3. About 18 hours thereafter, the cells were irradiated with increasing doses of 675 nm broad band red light from a 500 W tungsten-halogen lamp fitted with a 600 nm high pass filter, to determine the light dosage that would kill 90% of the phthalocyanine treated cells. Where 90% of the cells were not killed, the maximum percent of cells killed were determined, (expressed as % survival) and the related light dosage recorded.

RIF-1 tumors = assay: PDT of RIF-1 implanted tumors (Table 7); assay type: in vivo, C3H/HeN mice; conditions: for effect on tumor volume / growth (in words): 1 mg/kg
Description: The relative effectiveness at reducing tumor volume of selected phthalocyanine compounds at a given dosage was compared in vivo. RIF-1, i.e., radiation-induced fibrosarcoma, tumors were implanted into the backs of C3H/HeN mice. One tumor was implanted per mouse. Each of the phthalocyanine compounds listed in Table 7 was sonicated and vortexed in corn oil to produce a suspension. When the tumors reached […] in diameter and 2-3 mm in thickness, each mouse received 1 mg/kg in 0.1 ml of the corn oil, of the phthalocyanine suspension. For comparison, select mice received a conventional photosensitizer; either 5 mg/kg of chloroaluminum phthalocyanine tetrasulfonate, herein also referred to as "AlPcTS" in phosphate buffered saline or 5 mg/kg of Photofrin®-II in 5% dextrose. Twenty-four hours after the photosensitizers were administered, the tumors were irradiated with visible radiation delivered by an argon-pumped dye laser. The mice that received a phthalocyanine photosensitizer received light having a wavelength of 675 nm and the mice that received the Photofrin® II photosensitizer received light having a wavelength of 630 nm. Each tumor received 135 J/cm^2 of radiation. Tumor size was measured every day using calipers. The initial tumor volume was 50±10 mm^3. Tumor volume was calculated according to the hemiellipsoid model by the formula: [formula] Where l is length Where W is width

Structure (SMILES)	growth delay ([1]; 1 μM for 18 hours and 12 kJ/m^2 light)	Growth Delay, efficiency relative to 1 μM AlPcCl [1]	uptake from 1 μM AlPcCl [2] [nmole/10^7 cells]	CF10 (AlPcCl)/CF10 (Pc) [3]	F10 (AlPcCl)/F10 (Pc) [3]	inhibition of V79 culture growth (in words) ([1]; red light 12 kJ/m^2, three day period)	photosensitizing efficiency / photocytotoxicity (in words) [3]	LD 90 (L5178Y-R (LY-R) cells; fluence reducing survival to 10%) [kJ/m^2]	LD50 (L5178Y-R (LY-R) cells; fluence reducing survival to 50%) [kJ/m^2]	photosensitizer activity in LY-R cells (in words) (L5178Y-R (LY-R) cells; listed as PcXII)	Minimum Demonstrated Condition to induce apoptosis: C × F (L5178Y cells) [μm × kJ/m^2]	Minimum Demonstrated Condition to induce apoptosis: Fluence (L5178Y cells) [kJ/m^2]	Uptake (from Table 2) (V79 cells [4]) [n Moles/10^6 cells/μM]	Uptake into V79 cells, composite value (V79 cells [4]) [n Moles/10^6 cells/μM]	uptake by V79 cells (in words) (V79 cells [4])	LD 90 (V79 cells [5]; 0.5 μM, 18 h, light dose killing 90% of cells) [kJ/m^2]	photosensitizing activity, killing V79 cells (in words) (V79 cells [5]; discussion of Table 3)	Doubling Time of Initial Tumor Volume after PDT (RIF-1 tumors; 1 mg/kg in corn oil, 675 nm, 135 J/cm^2) [days]	effect on tumor volume / growth (in words) (RIF-1 tumors; listed as Pc XII)	effect on tumor volume / growth (in words) (RIF-1 tumors; listed as PcXII)
[Cl][Al]1[n]2c3c4ccccc4c2N=C2N=C(N=c4c5ccccc5c([n]41)=NC1=NC(=N3)c3ccccc31)c1ccccc12 [AlPcCl, chloroaluminum phthalocyanine, reference compound]	approximately 24 hours	1.0	0.723±0.172	1.0	1.0	–	–	–	–	–	–	–	–	–	–	–	–	–	–	–
C[N+](C)(C)CCC[Si](C)(C)[O][Al-2]123[n]4c5c6ccccc6c4N=c4c6ccccc6c([n]41)=NC1=[N+]2C(=NC2=[N+]3C(=N5)c3ccccc32)c2ccccc21.I [Compound II, AlPcOSi(CH3)2 (CH2)3 N(CH3)3^+ I^-]	–	3.4	–	0.72	0.99	substantial inhibition	nearly as efficient photosensitizers as AlPcCl	–	–	–	–	–	–	–	–	–	–	–	–	–
CN(C)CCC[Si](C)(C)O[Si]1(O[Si](C)(C)CCCN(C)C)n2c3c4ccccc4c2N=C2N=C(N=c4c5ccccc5c(n41)=NC1=NC(=N3)c3ccccc31)c1ccccc12 [Compound XII, SiPc[OSi(CH3)2 (CH2)3 N(CH3)2]2]	–	–	–	–	–	–	–	1.70	1.11	active photosensitizers; also recorded: most active compound of the phthalocyanines shown in Table 5	1.2	3.0	1.6	1.6	taken up particulary well	3.3	most active at killing V79 cells	20	significantly impair the growth of the tumors	particularly effective in reducing tumor volume
